Measured values reported in patent US10738056B2 (Aduro BioTech, Inc., priority 2017, dated 2020).
pIC50: −log10 of the molar value.

target: Human cGAS amino acids 155-522 (Homo sapiens (Human), UniProt Q8N884); test: cGAS biochemical activity assay (ATP remaining, Kinase-Glo Max luminescence); conditions: human cGAS 155-522, ATP remaining (Kinase-Glo Max); read-out: cGAS IC50
Sequence (Q8N884 157-522): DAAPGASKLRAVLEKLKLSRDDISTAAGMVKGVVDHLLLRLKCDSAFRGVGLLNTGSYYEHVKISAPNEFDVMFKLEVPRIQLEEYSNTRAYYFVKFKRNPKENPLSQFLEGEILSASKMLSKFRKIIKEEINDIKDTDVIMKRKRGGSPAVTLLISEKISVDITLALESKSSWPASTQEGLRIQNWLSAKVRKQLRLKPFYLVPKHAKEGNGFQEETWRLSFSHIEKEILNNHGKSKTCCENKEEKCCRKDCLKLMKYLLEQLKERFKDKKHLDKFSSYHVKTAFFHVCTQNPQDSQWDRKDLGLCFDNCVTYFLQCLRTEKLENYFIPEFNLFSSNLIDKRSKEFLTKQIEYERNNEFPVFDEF

pIC50, 3.60 to 4.70:
Cc1[nH]c2c(-c3ccccc3)c(C(F)(F)F)nn2c(=O)c1C(=O)N[C@H]1CCCC[C@@H]1O [Compound A1091, N-((1S,2S)-2-hydroxycyclohexyl)-5-methyl-7-oxo-3-phenyl-2-(trifluoromethyl)-4,7-dihydropyrazolo[1,5-a]pyrimidine-6-carboxamide]
CC(=O)Nc1ccccc1NC(=O)c1c(C)[nH]c2c(-c3ccccc3)c(C(F)(F)F)nn2c1=O [Compound A1021, N-(2-acetamidophenyl)-5-methyl-7-oxo-3-phenyl-2-(trifluoromethyl)-4,7-dihydropyrazolo[1,5-a]pyrimidine-6-carboxamide]
COCCn1c(-c2c(C)[nH]c3c(-c4ccccc4)c(C(F)(F)F)nn3c2=O)nc2c(OC)cccc21 [Compound C1200, 6-(4-methoxy-1-(2-methoxyethyl)-1H-benzo[d]imidazol-2-yl)-5-methyl-3-phenyl-2-(trifluoromethyl)pyrazolo[1,5-a]pyrimidin-7(4H)-one]
Cc1[nH]c2c(-c3ccccc3)c(C(F)(F)F)nn2c(=O)c1C(=O)Nc1cnccc1S(C)(=O)=O [Compound A1109, 5-methyl-N-(4-(methylsulfonyl)pyridin-3-yl)-7-oxo-3-phenyl-2-(trifluoromethyl)-4,7-dihydropyrazolo[1,5-a]pyrimidine-6-carboxamide]
CC(=O)NCCc1c(C)[nH]c2c(-c3ccccc3)c(C(F)(F)F)nn2c1=O [Compound B1013, N-(2-(5-methyl-7-oxo-3-phenyl-2-(trifluoromethyl)-4,7-dihydropyrazolo[1,5-a]pyrimidin-6-yl)ethyl)acetamide]
Cc1[nH]c2c(-c3ccccc3)c(C(F)(F)F)nn2c(=O)c1CC(=O)Nc1cccnc1 [Compound B1008, 2-(5-methyl-7-oxo-3-phenyl-2-(trifluoromethyl)-4,7-dihydropyrazolo[1,5-a]pyrimidin-6-yl)-N-(pyridin-3-yl)acetamide]
COc1nc(NC(C)=O)nc2oc(-c3c(C)[nH]c4c(-c5ccccc5)c(C(F)(F)F)nn4c3=O)nc12 [Compound C1150, N-(7-methoxy-2-(5-methyl-7-oxo-3-phenyl-2-(trifluoromethyl)-4,7-dihydropyrazolo[1,5-a]pyrimidin-6-yl)oxazolo[5,4-d]pyrimidin-5-yl)acetamide]
COc1cccc2oc(-c3c(C4CCC(C(=O)O)CC4)[nH]c4c(-c5ccccc5)c(C(F)(F)F)nn4c3=O)nc12 (single isomer, unassigned) [Compound C1238, 4-(6-(4-methoxybenzo[d]oxazol-2-yl)-7-oxo-3-phenyl-2-(trifluoromethyl)-4,7-dihydropyrazolo[1,5-a]pyrimidin-5-yl)cyclohexane-1-carboxylic acid]
Cc1ccc(NC(=O)c2c(C)[nH]c3c(-c4ccccc4)c(C(F)(F)F)nn3c2=O)cc1 [Compound A1012, 5-methyl-7-oxo-3-phenyl-N-(p-tolyl)-2-(trifluoromethyl)-4,7-dihydropyrazolo[1,5-a]pyrimidine-6-carboxamide]
Cc1[nH]c2c(-c3ccccc3)c(C(F)(F)F)nn2c(=O)c1C(=O)Nc1ccc(C(F)(F)F)cc1 [Compound A1007, 5-methyl-7-oxo-3-phenyl-2-(trifluoromethyl)-N-(4-(trifluoromethyl)phenyl)-4,7-dihydropyrazolo[1,5-a]pyrimidine-6-carboxamide]
Cc1[nH]c2c(-c3ccccc3)c(C(F)(F)F)nn2c(=O)c1C(=O)Nc1ccccc1OC(C)C [Compound A1060, N-(2-isopropoxyphenyl)-5-methyl-7-oxo-3-phenyl-2-(trifluoromethyl)-4,7-dihydropyrazolo[1,5-a]pyrimidine-6-carboxamide]
Cc1[nH]c2c(-c3ccccc3)c(C(F)(F)F)nn2c(=O)c1C(=O)NC1CCCC1 [Compound A1008, N-cyclopentyl-5-methyl-7-oxo-3-phenyl-2-(trifluoromethyl)-4,7-dihydropyrazolo[1,5-a]pyrimidine-6-carboxamide]
Cc1nnc(Cc2c(C)[nH]c3c(-c4ccccc4)c(C(F)(F)F)nn3c2=O)o1 [Compound D1032, 5-methyl-6-((5-methyl-1,3,4-oxadiazol-2-yl)methyl)-3-phenyl-2-(trifluoromethyl)pyrazolo[1,5-a]pyrimidin-7(4H)-one]
Cc1[nH]c2c(-c3ccccc3)c(C(F)(F)F)nn2c(=O)c1-c1nnc(C2CCNCC2)o1 [Compound D1052, 5-methyl-3-phenyl-6-(5-(piperidin-4-yl)-1,3,4-oxadiazol-2-yl)-2-(trifluoromethyl)pyrazolo[1,5-a]pyrimidin-7(4H)-one]
COc1cccc2c1CN(c1c(C)[nH]c3c(-c4ccccc4)c(C(F)(F)F)nn3c1=O)C2=O [Compound C1220, 6-(4-methoxy-1-oxoisoindolin-2-yl)-5-methyl-3-phenyl-2-(trifluoromethyl)pyrazolo[1,5-a]pyrimidin-7(4H)-one]
COc1cc(NC(=O)c2c(C)[nH]c3c(-c4ccccc4)c(C(F)(F)F)nn3c2=O)ccn1 [Compound A1087, N-(2-methoxypyridin-4-yl)-5-methyl-7-oxo-3-phenyl-2-(trifluoromethyl)-4,7-dihydropyrazolo[1,5-a]pyrimidine-6-carboxamide]
Cc1[nH]c2c(-c3ccccc3)c(C(F)(F)F)nn2c(=O)c1C(=O)Nc1ccon1 [Compound A1020, N-(isoxazol-3-yl)-5-methyl-7-oxo-3-phenyl-2-(trifluoromethyl)-4,7-dihydropyrazolo[1,5-a]pyrimidine-6-carboxamide]
Cc1[nH]c2c(-c3ccccc3)c(C(F)(F)F)nn2c(=O)c1C(=O)Nc1ccccc1NS(=O)(=O)C1CCCCC1 [Compound A1119, N-(2-(cyclohexanesulfonamido)phenyl)-5-methyl-7-oxo-3-phenyl-2-(trifluoromethyl)-4,7-dihydropyrazolo[1,5-a]pyrimidine-6-carboxamide]
COc1ccc(-c2nnc(Cc3c(C)[nH]c4c(-c5ccccc5)c(C(F)(F)F)nn4c3=O)o2)cc1 [Compound D1033, 6-((5-(4-methoxyphenyl)-1,3,4-oxadiazol-2-yl)methyl)-5-methyl-3-phenyl-2-(trifluoromethyl)pyrazolo[1,5-a]pyrimidin-7(4H)-one]
COCC1CCCN1c1nnc(-c2c(C)[nH]c3c(-c4ccccc4)c(C(F)(F)F)nn3c2=O)o1 (stereo not shown) [Compound D1059, 6-(5-(2-(methoxymethyl)pyrrolidin-1-yl)-1,3,4-oxadiazol-2-yl)-5-methyl-3-phenyl-2-(trifluoromethyl)pyrazolo[1,5-a]pyrimidin-7(4H)-one]

pIC50, > 4.70:
Cc1[nH]c2c(-c3ccccc3)c(C#N)nn2c(=O)c1-c1nc2c(OC3CC3)cccc2o1 [Compound C1277, 6-(4-cyclopropoxybenzo[d]oxazol-2-yl)-5-methyl-7-oxo-3-phenyl-4,7-dihydropyrazolo[1,5-a]pyrimidine-2-carbonitrile]
COc1cccn2cc(-c3c(C)[nH]c4c(-c5ccccc5)c(C(F)(F)F)nn4c3=O)nc12 [Compound C1044, 6-(8-methoxyimidazo[1,2-a]pyridin-2-yl)-5-methyl-3-phenyl-2-(trifluoromethyl)pyrazolo[1,5-a]pyrimidin-7(4H)-one]
COC1CCN(c2nnc(-c3c(C)[nH]c4c(-c5ccccc5)c(C(F)(F)F)nn4c3=O)o2)C1 (stereo not shown) [Compound D1037, 6-(5-(3-methoxypyrrolidin-1-yl)-1,3,4-oxadiazol-2-yl)-5-methyl-3-phenyl-2-(trifluoromethyl)pyrazolo[1,5-a]pyrimidin-7(4H)-one]
Cc1[nH]c2c(-c3ccccc3)c(C(F)(F)F)nn2c(=O)c1C(=O)Nc1cccc(OCc2ccccc2)c1 [Compound A1086, N-(3-(benzyloxy)phenyl)-5-methyl-7-oxo-3-phenyl-2-(trifluoromethyl)-4,7-dihydropyrazolo[1,5-a]pyrimidine-6-carboxamide]
COc1cccc2oc(-c3c(C)[nH]c4c(-c5ccccc5)nnn4c3=O)nc12 [Compound E1001, 6-(4-methoxybenzo[d]oxazol-2-yl)-5-methyl-3-phenyl-[1,2,3]triazolo[1,5-a]pyrimidin-7(4H)-one]

pIC50, < 3.60:
COCc1nc(-c2c(C)[nH]c3c(-c4ccccc4)c(C(F)(F)F)nn3c2=O)oc1C1CCCCC1 [Compound C1158, 6-(5-cyclohexyl-4-(methoxymethyl)oxazol-2-yl)-5-methyl-3-phenyl-2-(trifluoromethyl)pyrazolo[1,5-a]pyrimidin-7(4H)-one]
Cc1cccc(-c2c(C(F)(F)F)nn3c(=O)c(-c4nc5c(o4)CCCC5)c(C)[nH]c23)c1 [Compound C1034, 5-methyl-6-(4,5,6,7-tetrahydrobenzo[d]oxazol-2-yl)-3-(m-tolyl)-2-(trifluoromethyl)pyrazolo[1,5-a]pyrimidin-7(4H)-one]
Cc1[nH]c2c(-c3ccccc3)c(C(F)(F)F)nn2c(=O)c1-c1nnc(-c2cccc(N)c2)o1 [Compound D1079, 6-(5-(3-aminophenyl)-1,3,4-oxadiazol-2-yl)-5-methyl-3-phenyl-2-(trifluoromethyl)pyrazolo[1,5-a]pyrimidin-7(4H)-one]
Cc1noc(C)c1NC(=O)c1c(C)[nH]c2c(-c3ccccc3)c(C(F)(F)F)nn2c1=O [Compound A1019, N-(3,5-dimethylisoxazol-4-yl)-5-methyl-7-oxo-3-phenyl-2-(trifluoromethyl)-4,7-dihydropyrazolo[1,5-a]pyrimidine-6-carboxamide]
COc1cccc2oc(-c3c(C)[nH]c4c(-c5ccc(C#N)cc5)c(C(F)(F)F)nn4c3=O)nc12 [Compound C1164, 4-(6-(4-methoxybenzo[d]oxazol-2-yl)-5-methyl-7-oxo-2-(trifluoromethyl)-4,7-dihydropyrazolo[1,5-a]pyrimidin-3-yl)benzonitrile]
Cc1[nH]c2c(-c3ccccc3)c(C(F)(F)F)nn2c(=O)c1C(=O)N1CCOCC1 [Compound A1004, 5-methyl-6-(morpholine-4-carbonyl)-3-phenyl-2-(trifluoromethyl)pyrazolo[1,5-a]pyrimidin-7(4H)-one]
